Experimental data: ChEMBL document CHEMBL1201862, “PubChem BioAssay data set” (2004)
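A five-concentration, 48-hour dose response in 96-well plates underlies each endpoint, interpolated linearly between surrounding concentrations. GI50 = concentration required for 50% inhibition of growth.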 Active and inactive are the calls of the source. Cut-off read from the data, not from the text of the source: active = GI50 up to about 1.1 µM and inactive = higher.

Legend:
Assay in all cases: NCI anticancer screen, dose series, 48 h
786-0 = test system: 786-0
CCRF-CEM = test system: CCRF-CEM
DU-145 = test system: DU-145
HT-29 = test system: HT-29
IGROV-1 = test system: IGROV-1
K562 = test system: K562
MOLT-4 = test system: MOLT-4
Malme-3M = test system: Malme-3M
NCI-H226 = test system: NCI-H226
NCI-H522 = test system: NCI-H522
OVCAR-3 = test system: OVCAR-3
OVCAR-4 = test system: OVCAR-4
OVCAR-5 = test system: OVCAR-5
OVCAR-8 = test system: OVCAR-8
RXF 393 = test system: RXF 393
SF-295 = test system: SF-295
SF-539 = test system: SF-539
SK-MEL-2 = test system: SK-MEL-2
SK-MEL-5 = test system: SK-MEL-5
SW-620 = test system: SW-620

| Compound | GI50 (786-0) | GI50 (CCRF-CEM) | GI50 (DU-145) | GI50 (HT-29) | GI50 (IGROV-1) | GI50 (K562) | GI50 (MOLT-4) | GI50 (Malme-3M) | GI50 (NCI-H226) | GI50 (NCI-H522) | GI50 (OVCAR-3) | GI50 (OVCAR-4) | GI50 (OVCAR-5) | GI50 (OVCAR-8) | GI50 (RXF 393) | GI50 (SF-295) | GI50 (SF-539) | GI50 (SK-MEL-2) | GI50 (SK-MEL-5) | GI50 (SW-620) |
| --- | --- | --- | --- | --- | --- | --- | --- | --- | --- | --- | --- | --- | --- | --- | --- | --- | --- | --- | --- | --- |
| OC(c1ccc(F)cc1)(c1ccc(F)cc1)C1CC1 | 29.2 µM (inactive) | 24.8 µM (inactive) | 49.9 µM (inactive) | 21.5 µM (inactive) | 28.9 µM (inactive) | 31.4 µM (inactive) | 21.5 µM (inactive) | 23.9 µM (inactive) | 26.6 µM (inactive) | 21.2 µM (inactive) | 32.5 µM (inactive) | 26.2 µM (inactive) | 37.3 µM (inactive) | 37.2 µM (inactive) | 26.9 µM (inactive) | 27.9 µM (inactive) | 33.3 µM (inactive) | 16.1 µM (inactive) | 16.6 µM (inactive) | 25.6 µM (inactive) |
| CC1=CC(=O)[C@@H](O)[C@]2(C)[C@H]3[C@@]4(O)OC[C@@]35[C@@H](C[C@@H]12)OC(=O)C(OC(=O)CC1=CCCC1)[C@H]5[C@@H](C)[C@H]4O (some centres undefined) | 0.0465 µM (active) | 0.0197 µM (active) | 0.0665 µM (active) | 0.0238 µM (active) | 0.0188 µM (active) | 0.0246 µM (active) | < 0.0145 µM (active) | 0.0164 µM (active) | 0.0167 µM (active) | 0.0178 µM (active) | 0.0239 µM (active) | 0.0527 µM (active) | 0.105 µM (active) | 0.0279 µM (active) | 0.04 µM (active) | 0.0649 µM (active) | 0.0169 µM (active) | 0.0547 µM (active) | 0.0167 µM (active) | 0.0622 µM (active) |
| C=C(C(=O)O)[C@@H]1C[C@@H]2O[C@H]1CC(C)=CCC/C(C)=C/CC[C@@]2(C)O | > 100 µM (inactive) | > 100 µM (inactive) | > 100 µM (inactive) | – | > 100 µM (inactive) | > 100 µM (inactive) | > 100 µM (inactive) | > 100 µM (inactive) | > 100 µM (inactive) | > 100 µM (inactive) | > 100 µM (inactive) | > 100 µM (inactive) | > 100 µM (inactive) | > 100 µM (inactive) | > 100 µM (inactive) | > 100 µM (inactive) | > 100 µM (inactive) | > 100 µM (inactive) | > 100 µM (inactive) | > 100 µM (inactive) |
| Cc1ccc2c(=O)[nH]sc2c1 | 3.72 µM (inactive) | 3.26 µM (inactive) | 88.1 µM (inactive) | 16.7 µM (inactive) | 19.7 µM (inactive) | 5.58 µM (inactive) | 3.98 µM (inactive) | 20.4 µM (inactive) | 19.7 µM (inactive) | 2.38 µM (inactive) | 17.8 µM (inactive) | 27.9 µM (inactive) | 94 µM (inactive) | 17.3 µM (inactive) | 15.3 µM (inactive) | 54.5 µM (inactive) | 12.6 µM (inactive) | 37.7 µM (inactive) | 12.9 µM (inactive) | 12.6 µM (inactive) |
| CCOC(=O)C1(C(=O)OCC)C[C@@H](C)[C@@H](O)C1 | > 100 µM (inactive) | > 100 µM (inactive) | > 100 µM (inactive) | > 100 µM (inactive) | > 100 µM (inactive) | > 100 µM (inactive) | > 100 µM (inactive) | 72.1 µM (inactive) | > 100 µM (inactive) | > 100 µM (inactive) | > 100 µM (inactive) | > 100 µM (inactive) | > 100 µM (inactive) | > 100 µM (inactive) | > 100 µM (inactive) | > 100 µM (inactive) | > 100 µM (inactive) | > 100 µM (inactive) | > 100 µM (inactive) | > 100 µM (inactive) |
| CC(C)/C(Cl)=N/OC(=O)Nc1ccc(Cl)c(Cl)c1 | 1.96 µM (inactive) | 0.851 µM (active) | 18.1 µM (inactive) | 5.48 µM (inactive) | 11.7 µM (inactive) | 0.989 µM (active) | 2.49 µM (inactive) | 2.16 µM (inactive) | 18.1 µM (inactive) | 1.58 µM (inactive) | 2.58 µM (inactive) | 9.31 µM (inactive) | 16 µM (inactive) | 18.1 µM (inactive) | 13.4 µM (inactive) | 17.7 µM (inactive) | 13.6 µM (inactive) | 18.4 µM (inactive) | 11.6 µM (inactive) | 2.13 µM (inactive) |
| O=C(c1ccccc1)c1ccc2[nH]c(-c3c(Cl)c(Cl)c(Cl)c(Cl)c3C(=O)N/N=C/c3ccc(Cl)cc3)nc2c1 | 31.2 µM (inactive) | 18.3 µM (inactive) | 56.8 µM (inactive) | 35.2 µM (inactive) | 33 µM (inactive) | 23.7 µM (inactive) | 18.3 µM (inactive) | 37.4 µM (inactive) | 39.8 µM (inactive) | 19.5 µM (inactive) | 17.5 µM (inactive) | 30.3 µM (inactive) | 64.7 µM (inactive) | 51.8 µM (inactive) | 22.5 µM (inactive) | 29 µM (inactive) | 64.9 µM (inactive) | 29.4 µM (inactive) | 17.2 µM (inactive) | 54.3 µM (inactive) |
| Cc1ccc(S(=O)(=O)NC(=O)NCC(=O)NCC(=O)O)cc1 | > 100 µM (inactive) | > 100 µM (inactive) | > 100 µM (inactive) | > 100 µM (inactive) | > 100 µM (inactive) | > 100 µM (inactive) | > 100 µM (inactive) | > 100 µM (inactive) | > 100 µM (inactive) | > 100 µM (inactive) | > 100 µM (inactive) | > 100 µM (inactive) | > 100 µM (inactive) | > 100 µM (inactive) | > 100 µM (inactive) | > 100 µM (inactive) | > 100 µM (inactive) | > 100 µM (inactive) | > 100 µM (inactive) | > 100 µM (inactive) |
| COC(=O)c1cc2cc3c(c(O)c2c(=O)o1)O[C@@]1(Oc2c(O)c4c(c(O)c2[C@H]1OC1CC(OC)C(O)C(C)O1)C(=O)C=C(OC)C4=O)[C@H](O)C3 (some centres undefined) | 0.991 µM (active) | 0.889 µM (active) | 0.822 µM (active) | 1.14 µM (inactive) | 0.705 µM (active) | 0.841 µM (active) | 0.748 µM (active) | 1.28 µM (inactive) | 1.32 µM (inactive) | 2.09 µM (inactive) | 1.45 µM (inactive) | 0.604 µM (active) | 1.84 µM (inactive) | 1.06 µM (active) | 0.726 µM (active) | 0.724 µM (active) | 0.908 µM (active) | 1.53 µM (inactive) | 0.966 µM (active) | 1.07 µM (active) |
| Clc1ccc2c(NCCCC/N=C/c3ccccc3)ccnc2c1 | 9.16 µM (inactive) | 6.49 µM (inactive) | 20.7 µM (inactive) | 5.18 µM (inactive) | 11.8 µM (inactive) | 5.01 µM (inactive) | 2.82 µM (inactive) | 14.4 µM (inactive) | 4.33 µM (inactive) | 11.8 µM (inactive) | 16.5 µM (inactive) | 10.5 µM (inactive) | 13 µM (inactive) | 11.2 µM (inactive) | 4.09 µM (inactive) | 10.4 µM (inactive) | 11.9 µM (inactive) | 11.8 µM (inactive) | 13.5 µM (inactive) | 5.78 µM (inactive) |
| CC(C)(CO)NC1=C(Cl)C(=O)c2c(O)ccc(O)c2C1=O | 1.46 µM (inactive) | 0.33 µM (active) | 1.9 µM (inactive) | 1.31 µM (inactive) | 1.58 µM (inactive) | 0.104 µM (active) | 0.568 µM (active) | 1.87 µM (inactive) | 2.16 µM (inactive) | 0.316 µM (active) | 1.55 µM (inactive) | 1.57 µM (inactive) | 1.65 µM (inactive) | 1.29 µM (inactive) | 1.85 µM (inactive) | 1.7 µM (inactive) | 1.39 µM (inactive) | 2.32 µM (inactive) | 1.09 µM (active) | 0.327 µM (active) |
| CCCCCCCCCCCCCCCCOP(=O)(O)OCC(N)C(=O)O (centres undefined) | 21.5 µM (inactive) | 22.8 µM (inactive) | 87.3 µM (inactive) | 33 µM (inactive) | 18.4 µM (inactive) | 22.8 µM (inactive) | 11.5 µM (inactive) | 63.2 µM (inactive) | 21 µM (inactive) | 20.3 µM (inactive) | 17.4 µM (inactive) | 18.7 µM (inactive) | 20.4 µM (inactive) | 25.4 µM (inactive) | 23.8 µM (inactive) | 14.5 µM (inactive) | 21.3 µM (inactive) | 19.3 µM (inactive) | 17.8 µM (inactive) | 17 µM (inactive) |
| C[C@@H](CN1CC(=O)NC(=O)C1)N1CC(=O)NC(=O)C1 [DEXRAZOXANE] | 266 µM (inactive) | 21.4 µM (inactive) | 255 µM (inactive) | 110 µM (inactive) | 356 µM (inactive) | 301 µM (inactive) | 15.8 µM (inactive) | 165 µM (inactive) | 101 µM (inactive) | 67.8 µM (inactive) | 224 µM (inactive) | 115 µM (inactive) | 372 µM (inactive) | 282 µM (inactive) | 272 µM (inactive) | 259 µM (inactive) | 332 µM (inactive) | 246 µM (inactive) | 174 µM (inactive) | 57.5 µM (inactive) |
| C=C1C(=O)C23CC1C[C@H](OC(C)=O)C2C1(C)C(OC(C)=O)C[C@H](O)C(C)(C)[C@H]1C(O)[C@@H]3OC(C)=O (some centres undefined) | 7.87 µM (inactive) | 2.24 µM (inactive) | 18.1 µM (inactive) | 15.5 µM (inactive) | 16.5 µM (inactive) | 3.56 µM (inactive) | 2.73 µM (inactive) | 7.01 µM (inactive) | 22.1 µM (inactive) | 1.61 µM (inactive) | 7.18 µM (inactive) | 10.8 µM (inactive) | 14.6 µM (inactive) | 2.96 µM (inactive) | 7.24 µM (inactive) | 24.8 µM (inactive) | 2.43 µM (inactive) | 14.8 µM (inactive) | 14.6 µM (inactive) | 2.48 µM (inactive) |
